Experiments:
Vaccinia virus [1] = assay: Antiviral activity against Vaccinia virus LIVP harboring GFP infected in African green monkey CV1 cells assessed as GFP expression at 10 uM preincubated for 4 hrs with cells followed by viral infection measured after 24 hrs by flow cytometric analysis relative to control; assay type: functional, Orthopoxvirus vaccinia
Vaccinia virus [2] = assay: (§1) Antiviral activity against Vaccinia virus LIVP harboring GFP infected in African green monkey CV1 cells assessed as virus titer at 10 uM preincubated with cells for 4 hrs followed by viral infection measured after 48 hrs by gentian violet staining-based microscopic analysis (reference value: 3.3 +/- 0.1 log10PFU/ml); assay type: functional, Orthopoxvirus vaccinia
Vaccinia virus [3] = assay: Antiviral activity against Vaccinia virus LIVP harboring GFP infected in African green monkey CV1 cells assessed as virus titer preincubated with cells for 4 hrs followed by viral infection measured after 48 hrs by gentian violet staining-based microscopic analysis; assay type: functional; settings: Orthopoxvirus vaccinia, CV-1
Vaccinia virus [4] = assay: as §1, with “at 30” for “at 10”; assay type: functional, Orthopoxvirus vaccinia
Vaccinia virus [5] = assay: as §1, with “at 1” for “at 10”; assay type: functional, Orthopoxvirus vaccinia
Vaccinia virus [6] = assay: Antiviral activity against Vaccinia virus LIVP harboring GFP infected in African green monkey CV1 cells assessed as inhibition of GFP expression at 30 to 50 uM preincubated for 4 hrs with cells followed by viral infection measured after 24 hrs by flow cytometric analysis relative to control; assay type: functional, Orthopoxvirus vaccinia
Vaccinia virus [7] = assay: as §1, with “at 5” for “at 10”; assay type: functional, Orthopoxvirus vaccinia
Vaccinia virus [8] = assay: as §1, with “at 50” for “at 10”; assay type: functional, Orthopoxvirus vaccinia

**Q.** CN1CCN(CCn2c3ccccc3c3nc4ccccc4nc32)CC1 was tested. Which Activity (Vaccinia virus [1]) did it give?
**A.** The Activity was 91%.

**Q.** For CN(C)CCn1c2ccccc2c2nc3ccccc3nc21, which Activity (Vaccinia virus [1]) is on record?
**A.** Its Activity is 67%.

**Q.** Which Activity (Vaccinia virus [1]) does the source give for CCCCN(C)CCn1c2ccccc2c2nc3ccccc3nc21 here?
**A.** Its Activity is 77%.

**Q.** With O=C(CN1CCCCCC1)NN1C(=O)c2cccc3cccc(c23)C1=O as the compound, how does the Activity (Vaccinia virus [1]) read?
**A.** Its Activity is 111%.

**Q.** Which Activity (Vaccinia virus [1]) does the source give for CCN(CC)CCNC(=O)Cn1c2ccccc2c2nc3ccccc3nc21 here?
**A.** The Activity was 67%.

**Q.** How did the Activity (Vaccinia virus [1]) turn out when O=C(Cn1c2ccccc2c2nc3ccccc3nc21)NCCN1CCOCC1 was run?
**A.** The Activity was 125%.

**Q.** Which Activity (Vaccinia virus [1]) does the source give for CN(C)CCCNC(=O)CCCn1c2ccccc2c2nc3ccccc3nc21 here?
**A.** Its Activity is 111%.

**Q.** With Cc1ccc2c(c1)c1nc3ccccc3nc1n2CCN1CCN(C)CC1 as the compound, how does the Activity (Vaccinia virus [1]) read?
**A.** The Activity was 111%.

**Q.** For COC(=O)CN(C)CCCN1C(=O)c2cccc3cccc(c23)C1=O, which Activity (Vaccinia virus [1]) is on record?
**A.** The Activity was 83%.

**Q.** CCCCN(CCO)CCN1C(=O)c2cccc3cccc(c23)C1=O was tested. Which Activity (Vaccinia virus [1]) did it give?
**A.** The Activity was 83%.

**Q.** For CN1CCN(CCN2C(=O)c3cccc4cccc(c34)C2=O)CC1, which Activity (Vaccinia virus [1]) is on record?
**A.** Its Activity is 77%.

**Q.** O=C(CCCn1c2ccccc2c2nc3ccccc3nc21)NCCN1CCCCC1 was tested. Which Activity (Vaccinia virus [1]) did it give?
**A.** The Activity was 100%.

**Q.** How did the Activity (Vaccinia virus [1]) turn out when CN1CCN(CC(=O)NN2C(=O)c3cccc4cccc(c34)C2=O)CC1 was run?
**A.** The Activity was 48%.

**Q.** With CN(C)CCCNCCn1c2ccccc2c2nc3ccccc3nc21 as the compound, how does the Activity (Vaccinia virus [2]) read?
**A.** The Activity was 3.3 log10PFU.

**Q.** And the IC50 (Vaccinia virus [3])?
**A.** Its IC50 is 22 µM.

**Q.** What about the Activity (Vaccinia virus [4]) of the same compound?
**A.** The Activity was 2.7 log10PFU.

**Q.** What about the Activity (Vaccinia virus [5]) of the same compound?
**A.** Its Activity is 3.5 log10PFU.

**Q.** What about the “fold change (FC)” value (Vaccinia virus [6]) of the same compound?
**A.** The value was 8 - 10.

**Q.** And the Activity (Vaccinia virus [1])?
**A.** The Activity was 45%.

**Q.** CCN(CC)CCn1c2ccc(OC)cc2c2nc3ccccc3nc21 was tested. Which Activity (Vaccinia virus [1]) did it give?
**A.** The Activity was 91%.

**Q.** For c1ccc2nc3c(nc2c1)c1ccccc1n3CCNCCCN1CCOCC1, which Activity (Vaccinia virus [2]) is on record?
**A.** Its Activity is 3.3 log10PFU.

**Q.** What about the IC50 (Vaccinia virus [3]) of the same compound?
**A.** Its IC50 is 19 µM.

**Q.** What about the Activity (Vaccinia virus [4]) of the same compound?
**A.** Its Activity is 2.6 log10PFU.

**Q.** What about the Activity (Vaccinia virus [5]) of the same compound?
**A.** The Activity was 3.6 log10PFU.

**Q.** And the “fold change (FC)” value (Vaccinia virus [6])?
**A.** Its value is 8 - 10.

**Q.** And the Activity (Vaccinia virus [1])?
**A.** The Activity was 48%.

**Q.** For CN(C)CCCOC(=O)Cn1c2ccccc2c2nc3ccccc3nc21, which Activity (Vaccinia virus [1]) is on record?
**A.** The Activity was 83%.

**Q.** Which Activity (Vaccinia virus [1]) does the source give for O=C(CN1CCCC1)NN1C(=O)c2cccc3cccc(c23)C1=O here?
**A.** The Activity was 111%.

**Q.** With CC(O)N(C)CCn1c2ccccc2c2nc3ccccc3nc21 (centres undefined) as the compound, how does the Activity (Vaccinia virus [1]) read?
**A.** Its Activity is 91%.

**Q.** O=C(Cn1c2ccccc2c2nc3ccccc3nc21)OCCN1CCCCC1 was tested. Which Activity (Vaccinia virus [1]) did it give?
**A.** The Activity was 71%.

**Q.** How did the Activity (Vaccinia virus [1]) turn out when CN(C)CCOC(=O)CCCn1c2ccccc2c2nc3ccccc3nc21 was run?
**A.** Its Activity is 125%.

**Q.** Which Activity (Vaccinia virus [1]) does the source give for CCN(CC)CCCNC(=O)Cn1c2ccccc2c2nc3ccccc3nc21 here?
**A.** The Activity was 83%.

**Q.** For CCN(CC)CCNCCn1c2ccccc2c2nc3ccccc3nc21, which Activity (Vaccinia virus [1]) is on record?
**A.** The Activity was 91%.

**Q.** What does the source list for CCN(CC)CCCNCCn1c2ccccc2c2nc3ccccc3nc21?
**A.** Activity (Vaccinia virus [2]): 2.6 log10PFU; IC50 (Vaccinia virus [3]): < 1 µM; Activity (Vaccinia virus [7]): 2.8 log10PFU; Activity (Vaccinia virus [5]): 2.8 log10PFU; Activity (Vaccinia virus [1]): 28%

**Q.** O=C(CCCn1c2ccccc2c2nc3ccccc3nc21)NCCCN1CCOCC1 was tested. Which Activity (Vaccinia virus [1]) did it give?
**A.** The Activity was 111%.

**Q.** With CN(CCO)CCN1C(=O)c2cccc3cccc(c23)C1=O as the compound, how does the Activity (Vaccinia virus [1]) read?
**A.** Its Activity is 83%.

**Q.** How did the Activity (Vaccinia virus [1]) turn out when CCN(CCO)CCN1C(=O)c2cccc3cccc(c23)C1=O was run?
**A.** Its Activity is 71%.

**Q.** CN(C)CCNC(=O)Cn1c2ccccc2c2nc3ccccc3nc21 was tested. Which Activity (Vaccinia virus [1]) did it give?
**A.** Its Activity is 59%.

**Q.** CN(C)CCNC(=O)CCCn1c2ccccc2c2nc3ccccc3nc21 was tested. Which Activity (Vaccinia virus [1]) did it give?
**A.** The Activity was 100%.

**Q.** CC1CCN(CC(=O)NN2C(=O)c3cccc4cccc(c34)C2=O)CC1 was tested. Which Activity (Vaccinia virus [1]) did it give?
**A.** The Activity was 125%.

**Q.** COc1ccc2c(c1)c1nc3ccccc3nc1n2CCN1CCCCC1 was tested. Which Activity (Vaccinia virus [2]) did it give?
**A.** Its Activity is 2.8 log10PFU.

**Q.** And the IC50 (Vaccinia virus [3])?
**A.** The IC50 was 5 µM.

**Q.** And the Activity (Vaccinia virus [5])?
**A.** Its Activity is 3.1 log10PFU.

**Q.** And the Activity (Vaccinia virus [8])?
**A.** The Activity was 2.4 log10PFU.

**Q.** What about the “fold change (FC)” value (Vaccinia virus [6]) of the same compound?
**A.** The value was 8 - 10.

**Q.** And the Activity (Vaccinia virus [1])?
**A.** The Activity was 23%.

**Q.** Which Activity (Vaccinia virus [2]) does the source give for CN(C)CCCNC(=O)Cn1c2ccccc2c2nc3ccccc3nc21 here?
**A.** Its Activity is 2.8 log10PFU.

**Q.** What about the IC50 (Vaccinia virus [3]) of the same compound?
**A.** The IC50 was 10 µM.

**Q.** And the Activity (Vaccinia virus [5])?
**A.** Its Activity is 3.4 log10PFU.

**Q.** And the Activity (Vaccinia virus [8])?
**A.** Its Activity is 2.5 log10PFU.

**Q.** And the “fold change (FC)” value (Vaccinia virus [6])?
**A.** Its value is 8 - 10.

**Q.** And the Activity (Vaccinia virus [1])?
**A.** Its Activity is 42%.

**Q.** For CN(C)CCNCCn1c2ccccc2c2nc3ccccc3nc21, which Activity (Vaccinia virus [1]) is on record?
**A.** The Activity was 77%.

**Q.** How did the Activity (Vaccinia virus [1]) turn out when CCN(CC)CCNC(=O)CCCn1c2ccccc2c2nc3ccccc3nc21 was run?
**A.** The Activity was 91%.

**Q.** For CCN(CC)CCCC(C)N1C(=O)c2cccc3cccc(c23)C1=O (centres undefined), which Activity (Vaccinia virus [1]) is on record?
**A.** The Activity was 111%.

**Q.** Which Activity (Vaccinia virus [1]) does the source give for O=C(CCCn1c2ccccc2c2nc3ccccc3nc21)OCCN1CCOCC1 here?
**A.** The Activity was 111%.

**Q.** O=C(Cn1c2ccccc2c2nc3ccccc3nc21)NCCCN1CCOCC1 was tested. Which Activity (Vaccinia virus [1]) did it give?
**A.** Its Activity is 83%.

**Q.** c1ccc2nc3c(nc2c1)c1ccccc1n3CCNCCN1CCCCC1 was tested. Which Activity (Vaccinia virus [1]) did it give?
**A.** The Activity was 71%.

**Q.** For O=C(CCCn1c2ccccc2c2nc3ccccc3nc21)NCCN1CCOCC1, which Activity (Vaccinia virus [1]) is on record?
**A.** Its Activity is 111%.

**Q.** With COC(=O)CN1CCN(CCN2C(=O)c3cccc4cccc(c34)C2=O)CC1 as the compound, how does the Activity (Vaccinia virus [1]) read?
**A.** Its Activity is 77%.
